In patent publication US20020049223A1, “Quinoline and naphthyridine carboxylic acid antibacterials” (priority 1999, published 2002):

Tests used:
[1] = test system: Enterococcus faecalis PIU 1967; assay: Assay A: in vitro antibacterial activity, agar dilution MIC; type: cell-based; settings: Table 1, Assay A, BHI agar, 35-37° C., about 20 to 24 hours; code B = Enterococcus faecalis PIU 1967; unit assumed
Protocol: (§1) Assay A. Determination of Biological Activity In Vitro Assay of Antibacterial Activity
(§2) Representative compounds of the invention were assayed in vitro for antibacterial activity. Twelve petri dishes containing successive aqueous dilutions of the test compound mixed with sterilized Brain Heart Infusion (BHI) agar (Difco 0418-01-5) (10 mL) were prepared. Each plate was inoculated with 1:100 (or 1:10 for slow-growing strains, such as Micrococcus and Streptococcus) dilutions of up to 32 different microorganisms using a Steers replicator block. The inoculated plates were incubated at 35-37° C. for about 20 to about 24 hours. In addition, a control plate with BHI agar and no test compound was prepared and incubated at the beginning and end of each test.
(§3) An additional plate containing a compound having known susceptibility patterns for the organisms being tested and belonging to the same antibiotic class as the test compound was also prepared and incubated as a further control and to provide test-to-test comparability. Ciprofloxacin was used for this purpose.
(§4) After incubation, each plate was visually inspected. The minimum inhibitory concentration (MIC) was defined as the lowest concentration of drug yielding no growth, a slight haze, or sparsely isolated colonies on the inoculum spot as compared to the growth control.

Escherichia coli JUHL = assay: as above; type: cell-based; settings: Table 1, Assay A, BHI agar, 35-37° C., about 20 to 24 hours; code D = Escherichia coli JUHL; unit assumed
Protocol: as §1, §2, §3, §4

[2] = test system: Haemophilus influenzae DILL AMP R; assay: as above; type: cell-based; settings: Table 1, Assay A, BHI agar, 35-37° C., about 20 to 24 hours; code E = Haemophilus influenzae DILL AMP R; unit assumed
Protocol: as §1, §2, §3, §4

[3] = test system: Moraxella catarrahalis 2604; assay: as above; type: cell-based; settings: Table 1, Assay A, BHI agar, 35-37° C., about 20 to 24 hours; code C = Moraxella catarrahalis 2604; unit assumed
Protocol: as §1, §2, §3, §4

[4] = test system: Staphylococcus aureus ATCC 6538P; assay: as above; type: cell-based; settings: Table 1, Assay A, BHI agar, 35-37° C., about 20 to 24 hours; code A = Staphylococcus aureus ATCC 6538P; unit assumed
Protocol: as §1, §2, §3, §4

[5] = test system: Streptococcus pneumoniae ATCC 6303; assay: as above; type: cell-based; settings: Table 1, Assay A, BHI agar, 35-37° C., about 20 to 24 hours; code F = Streptococcus pneumoniae ATCC 6303; unit assumed
Protocol: as §1, §2, §3, §4

Row | SMILES | Antibacterial Activity (MIC's), B [1] | Antibacterial Activity (MIC's), D (Escherichia coli JUHL) | Antibacterial Activity (MIC's), E [2] | Antibacterial Activity (MIC's), C [3] | Antibacterial Activity (MIC's), A [4] | Antibacterial Activity (MIC's), F [5] | melting point
1 | COc1c(-c2cc3c(s2)CCCC3N)ccc2c(=O)c(C(=O)O)cn(C3CC3)c12.Cl (stereo not shown) [Example 40, 7-(4-amino-4,5,6,7-tetrahydro-1-benzothien-2-yl)-1-cyclopropyl-8-methoxy-4-oxo-1,4-dihydro-3-quinolinecarboxylic acid hydrochloride] | 0.1 µg/mL | 0.2 µg/mL | 0.06 µg/mL | 0.1 µg/mL | 0.02 µg/mL | 0.125 µg/mL | 219 to 222 °C
2 | COc1c(-c2cc3c(s2)CCC(O)C3)ccc2c(=O)c(C(=O)O)cn(C3CC3)c12 (stereo not shown) [Example 42, 1-cyclopropyl-7-(5-hydroxy-4,5,6,7-tetrahydro-1-benzothien-2-yl)-8-methoxy-4-oxo-1,4-dihydro-3-quinolinecarboxylic acid] | 0.39 µg/mL | 0.78 µg/mL | 0.125 µg/mL | 0.02 µg/mL | 0.02 µg/mL | 0.25 µg/mL | 232 to 233 °C
3 | COc1c(-c2cc3c(s2)CCNC3)ccc2c(=O)c(C(=O)O)cn(C3CC3)c12.Cl [Example 2, 1-cyclopropyl-8-methoxy-4-oxo-7-(4,5,6,7-tetrahydrothieno[3,2-c]pyridin-2-yl)-1,4-dihydro-3-quinolinecarboxylic acid hydrochloride] | 0.2 µg/mL | 0.2 µg/mL | 0.12 µg/mL | 0.2 µg/mL | 0.05 µg/mL | 0.5 µg/mL | 180 °C (dec.)
4 | CC1NCCc2cc(-c3nc4c(cc3F)c(=O)c(C(=O)O)cn4C3CC3)sc21.Cl (stereo not shown) [Example 22, 1-cyclopropyl-6-fluoro-7-(7-methyl-4,5,6,7-tetrahydrothieno(2,3-c)pyridin-2-yl)-4-oxo-1,4-dihydro[1,8]naphthyridine-3-carboxylic acid hydrochloride] | 0.78 µg/mL | 0.78 µg/mL | 0.25 µg/mL | 0.39 µg/mL | 0.2 µg/mL | 2 µg/mL | 293 to 294 °C
5 | Br.CC1NCCc2sc(-c3ccc4c(=O)c(C(=O)O)cn(C5CC5)c4c3OC(F)F)cc21 (stereo not shown) [Example 20, 1-cyclopropyl-8-(difluoromethoxy)-7-(4-methyl-4,5,6,7-tetrahydrothieno[3,2-c]pyridin-2-yl)-4-oxo-1,4-dihydro-3-quinolinecarboxylic acid hydrobromide] | 0.78 µg/mL | 0.78 µg/mL | 0.25 µg/mL | 0.78 µg/mL | 0.2 µg/mL | 1 µg/mL | 176 to 180 °C (dec.)
6 | COc1c(-c2cc3c(s2)CNCC3)ccc2c(=O)c(C(=O)O)cn(C3CC3)c12.Cl [Example 7, 1-cyclopropyl-8-methoxy-4-oxo-7-(4,5,6,7-tetrahydrothieno(2,3-c)pyridin-2-yl)-1,4-dihydro-3-quinolinecarboxylic acid hydrochloride] | 0.39 µg/mL | 0.2 µg/mL | 0.06 µg/mL | 0.2 µg/mL | 0.2 µg/mL | 0.25 µg/mL | 188 to 189 °C
7 | Cl.O=C(O)c1cn(C2CC2)c2nc(-c3cc4c(s3)CNCC4)c(F)cc2c1=O [Example 9, 1-cyclopropyl-6-fluoro-4-oxo-7-(4,5,6,7-tetrahydrothieno(2,3-c)pyridin-2-yl)-1,4-dihydro[1,8]naphthyridine-3-carboxylic acid hydrochloride] | 0.2 µg/mL | 0.1 µg/mL | 0.06 µg/mL | 0.1 µg/mL | 0.1 µg/mL | 0.125 µg/mL | 290 to 291 °C
8 | CC1CNCc2sc(-c3ccc4c(=O)c(C(=O)O)cn(C5CC5)c4n3)cc21.Cl (stereo not shown) [Example 32, 1-cyclopropyl-7-(4-methyl-4,5,6,7-tetrahydrothieno(2,3-c)pyrdin-2-yl)-4-oxo-1,4-dihydro[1,8]naphthyridine-3-carboxylic acid hydrochloride] | 0.39 µg/mL | 0.39 µg/mL | 0.25 µg/mL | 0.2 µg/mL | 0.2 µg/mL | 1 µg/mL | –
